Laboratory results reported in ChEMBL document CHEMBL3046011, “QSAR analysis of 2-sulfonylphenyl-3-phenyl-indole derivatives as novel anti-inflammatory compounds” (Med Chem Res, 2009).
pIC50: −log10 of the molar value.

biological target: T1, Prostaglandin G/H synthase 2 (Mus musculus, UniProt Q05769); experiment: Inhibition of COX2 in Mus musculus (mouse) peritoneal macrophage
T1 sequence (Q05769 whole entry): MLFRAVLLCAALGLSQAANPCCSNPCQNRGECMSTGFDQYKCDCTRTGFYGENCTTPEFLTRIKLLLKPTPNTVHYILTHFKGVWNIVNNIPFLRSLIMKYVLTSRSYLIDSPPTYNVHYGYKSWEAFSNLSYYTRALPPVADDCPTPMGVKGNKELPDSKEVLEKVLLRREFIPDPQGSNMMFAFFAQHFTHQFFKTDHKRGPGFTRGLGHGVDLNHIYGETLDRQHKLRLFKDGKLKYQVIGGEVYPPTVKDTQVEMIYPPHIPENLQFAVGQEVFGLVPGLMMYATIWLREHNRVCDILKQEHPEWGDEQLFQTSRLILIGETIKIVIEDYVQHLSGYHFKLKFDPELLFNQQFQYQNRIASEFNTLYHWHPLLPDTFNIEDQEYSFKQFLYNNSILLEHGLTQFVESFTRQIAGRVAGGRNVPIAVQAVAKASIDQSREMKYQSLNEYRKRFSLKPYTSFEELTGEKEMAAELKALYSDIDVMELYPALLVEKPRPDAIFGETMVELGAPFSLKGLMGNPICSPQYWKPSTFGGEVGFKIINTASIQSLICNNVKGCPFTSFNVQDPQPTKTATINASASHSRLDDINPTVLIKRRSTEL

In order of falling pIC50:
1. COc1ccc(-c2c(-c3ccc(S(C)(=O)=O)cc3)[nH]c3ccccc23)cc1  10.70
2. Cc1ccc2[nH]c(-c3ccc(S(N)(=O)=O)cc3)c(-c3ccccc3)c2c1  10.70
3. NS(=O)(=O)c1ccc(-c2[nH]c3ccccc3c2-c2ccccc2)cc1  10.05
4. NS(=O)(=O)c1ccc(-c2[nH]c3ccc(Cl)cc3c2-c2ccccc2)cc1  9.85
5. Cc1ccc(-c2c(-c3ccc(S(C)(=O)=O)cc3)[nH]c3ccccc23)cc1C  9.77
6. CC(=O)NS(=O)(=O)c1ccc(-c2[nH]c3ccccc3c2-c2ccccc2)cc1  9.75
7. Cc1ccc2[nH]c(-c3ccc(S(C)(=O)=O)cc3)c(-c3ccccc3)c2c1  9.55
8. CS(=O)(=O)c1ccc(-c2[nH]c3ccccc3c2-c2ccccc2)cc1  9.22
9. NS(=O)(=O)c1ccc(-c2[nH]c3ccccc3c2-c2ccc(Cl)cc2)cc1  7.48
